From patent publication US10144742B2 (Millennium Pharmaceuticals, Inc., priority 2014, dated 2018) come the findings set out here.

Where two headings read alike, the source gives them in different places.

The subject of one experiment is PC3 cells. Description: PC3 growth inhibition (Cell-titer glo, 72 hours). It counts as cell-based. The conditions noted are these: Homo sapiens, read-out: Percent Inhibition (PC3 growth inhibition); for inhibition at 1.667 µM: compound concentration 1.667 μM. The method in brief:
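Compounds in AIM serum-free medium were applied for 72 h at 37 °C, 5% CO2 to PC3 cells plated overnight from RPMI1640 culture. Luminescence after 10 min CellTiter-Glo, normalised to DMSO, gave % viability at 1 μM or 1.667 μM, or GI50/LD50.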

The next experiment has as its target hNAMPT protein (Homo sapiens (Human), UniProt P43490). Description: NAMPT enzyme assay (TR-FRET/HTRF, BodiPY ligand, anti 6His-Tb). It counts as binding. The conditions noted are these: for inhibition at 1 µM: read-out: Percent Inhibition. Summed up:
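Compound or DMSO was incubated for 1 h at room temperature, protected from light, with BodiPY ligand and hNAMPT labelled by terbium anti-6His antibody. The 520 nm to 486 nm emission ratio after 320 nm excitation gave inhibition versus vehicle, from which concentration-response curves yielded IC50.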
In general terms: TR-FRET usually uses a lanthanide donor and a delayed reading to cut background.

Setting [1] is: PC-3, compound concentration 1 μM, PC3 cells, 72 hours, Cell-titer glo.
[2] abbreviates: NAMPT IC50 range class, read-out: IC50.
The mark [3] stands for this setting: PC-3, PC3 cells, 72 hours, Cell-titer glo.

hNAMPT protein, sequence (P43490 whole entry): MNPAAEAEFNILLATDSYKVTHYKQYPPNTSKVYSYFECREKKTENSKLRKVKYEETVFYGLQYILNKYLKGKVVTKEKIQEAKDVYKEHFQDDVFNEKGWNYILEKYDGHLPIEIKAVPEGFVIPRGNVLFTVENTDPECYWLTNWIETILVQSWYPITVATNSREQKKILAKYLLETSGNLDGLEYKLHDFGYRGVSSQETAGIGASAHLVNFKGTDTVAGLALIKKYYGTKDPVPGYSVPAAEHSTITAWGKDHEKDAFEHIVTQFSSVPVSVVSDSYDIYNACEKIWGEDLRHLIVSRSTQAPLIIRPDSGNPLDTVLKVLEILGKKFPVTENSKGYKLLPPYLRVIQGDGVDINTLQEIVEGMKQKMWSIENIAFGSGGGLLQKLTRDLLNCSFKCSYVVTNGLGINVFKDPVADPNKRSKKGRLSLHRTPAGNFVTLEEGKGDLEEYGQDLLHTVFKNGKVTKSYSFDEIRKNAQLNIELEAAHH

By inhibition is commonly meant the drop in the measured response relative to a control, in per cent. For orientation: IC50 means the point on the concentration scale where inhibition reaches its midpoint. Regarding `CC(C)(C)OC(=O)NCc1ccccc1-c1nc2cc(C(=O)NCCCn3ccnc3)ccc2nc1-c1ccccc1` [Compound I-217, tert-butyl[2-(7-{[3-(1H-imidazol-1-yl)propyl]carbamoyl}-3-phenylquinoxalin-2-yl)benzyl]carbamate], the inhibition at 1 µM in the experiment with PC3 cells (setting [1]) was found to be 95%; at hNAMPT protein (compound concentration 1 μM) it was 26%. Besides, the IC50 at hNAMPT protein (setting [2]) was in the range of 2000 to 10000 nM.

For `COc1cccc(-c2nc3cc(C(=O)NCCCn4ccnc4)ccc3nc2-c2ccccc2)c1` [Compound I-218, N-[3-(1H-imidazol-1-yl)propyl]-3-(3-methoxyphenyl)-2-phenylquinoxaline-6-carboxamide], the inhibition at 1 µM worked out at 0% in the experiment with PC3 cells (setting [1]) and 100% at hNAMPT protein (compound concentration 1 μM). In addition, the IC50 on hNAMPT protein (setting [2]) is less than 100 nM.

In the case of `N#Cc1cccc(-c2nc3ccc(C(=O)NCCCn4ccnc4)cc3nc2-c2ccccc2)c1` [Compound I-219, 2-(3-cyanophenyl)-N-[3-(1H-imidazol-1-yl)propyl]-3-phenylquinoxaline-6-carboxamide], the inhibition at 1 µM in the experiment on PC3 cells (setting [1]) was -7%; at hNAMPT protein (compound concentration 1 μM), 74%. The IC50 at hNAMPT protein (setting [2]) was 100 to 500 nM.

As to `O=C(NCc1ccc2[nH]ncc2c1)c1ccc2nc(N3CCCCC3)c(-c3ccc(F)cc3)nc2c1` [Compound I-220, 3-(4-Fluorophenyl)-N-(1H-indazol-5-ylmethyl)-2-(piperidin-1-yl)quinoxaline-6-carboxamide], the inhibition at 1.667 µM in the experiment on PC3 cells (setting [3]) is 4%. The IC50 at hNAMPT protein (setting [2]) lay within 100 to 500 nM. The inhibition at 1 µM on hNAMPT protein was found to be 68%.

In the case of `O=C(NCCOc1cccnc1)c1ccc2nc(N3CCC(N4CCOCC4)CC3)c(-c3ccc(F)cc3)nc2c1` [Compound I-221, 3-(4-fluorophenyl)-2-[4-(morpholin-4-yl)piperidin-1-yl]-N-[2-(pyridin-3-yloxy)ethyl]quinoxaline-6-carboxamide], the inhibition at 1.667 µM in the experiment with PC3 cells (setting [3]) worked out at 2%. On hNAMPT protein (setting [2]), the IC50 was less than 100 nM. On hNAMPT protein (compound concentration 1 μM), the inhibition at 1 µM was greater than 99%.

`CC(C)Oc1nc2ccc(C(=O)NCCCc3ncc[nH]3)cc2nc1-c1ccc(Cl)cc1` [Compound I-222, 3-(4-chlorophenyl)-N-[3-(1H-imidazol-2-yl)propyl]-2-isopropoxyquinoxaline-6-carboxamide]: the inhibition at 1.667 µM in the experiment on PC3 cells (setting [3]) turned out to be 12%. Also, the IC50 at hNAMPT protein (setting [2]) was less than 100 nM. The inhibition at 1 µM on hNAMPT protein (compound concentration 1 μM) came out at 92%.

`CC(=O)Nc1ccc(-c2nc3cc(C(=O)NCCCn4ccnc4)ccc3nc2-c2ccccc2)cc1` [Compound I-223, 3-(4-acetamidophenyl)-N-[3-(1H-imidazol-1-yl)propyl]-2-phenylquinoxaline-6-carboxamide]: the inhibition at 1 µM in the experiment with PC3 cells (setting [1]) came to 103%; on hNAMPT protein (compound concentration 1 μM), 10%. In addition, the IC50 at hNAMPT protein (setting [2]) fell in the range of 2000 to 10000 nM.

Consider `O=C(NCCCn1ccnc1)c1ccc2nc(-c3ccccc3)c(-c3cccc(Cl)c3)nc2c1` [Compound I-224, 3-(3-chlorophenyl)-N-[3-(1H-imidazol-1-yl)propyl]-2-phenylquinoxaline-6-carboxamide], for which the values for the inhibition at 1 µM in the experiment with PC3 cells (setting [1]) and on hNAMPT protein (compound concentration 1 μM) were 1% and 74%, respectively. Besides, on hNAMPT protein (setting [2]), the IC50 is 100 to 500 nM.

For the compound `O=C(c1ccc2nc(-c3ccc(F)cc3)c(-c3ccc(F)cc3)nc2c1)N1CCc2[nH]ncc2C1` [Compound I-225, [2,3-bis(4-fluorophenyl)quinoxalin-6-yl](1,4,6,7-tetrahydro-5H-pyrazolo[4,3-c]pyridin-5-yl)methanone], the inhibition at 1 µM with PC3 cells (setting [1]) was 91%; at hNAMPT protein (compound concentration 1 μM), 14%. Further, the IC50 on hNAMPT protein (setting [2]) is 2000 to 10000 nM.

Take `COC1CCN(c2nc3ccc(C(=O)NCCCn4ccnc4)cc3nc2-c2ccccc2)C1` (stereo not drawn) [Compound I-226, N-[3-(1H-imidazol-1-yl)propyl]-2-(3-methoxypyrrolidin-1-yl)-3-phenylquinoxaline-6-carboxamide]: the inhibition at 1 µM with PC3 cells (setting [1]) was -7%; on hNAMPT protein (compound concentration 1 μM), 70%. Moreover, the IC50 at hNAMPT protein (setting [2]) was in the range of 100 to 500 nM.

On to `O=C(NCCCn1ccnc1)c1ccc2nc(-c3ccccc3)c(-c3ccc4cc[nH]c4c3)nc2c1` [Compound I-227, N-[3-(1H-imidazol-1-yl)propyl]-3-(1H-indol-6-yl)-2-phenylquinoxaline-6-carboxamide], for which the inhibition at 1 µM is 1% in the experiment with PC3 cells (setting [1]) and 68% on hNAMPT protein (compound concentration 1 μM). Also, the 50% inhibitory concentration (IC50) at hNAMPT protein (setting [2]) lay in the range of 500 to 1000 nM.

For the compound `CCOc1cccc(-c2nc3ccc(C(=O)NCCCn4ccnc4)cc3nc2-c2ccccc2)c1` [Compound I-228, 2-(3-ethoxyphenyl)-N-[3-(1H-imidazol-1-yl)propyl]-3-phenylquinoxaline-6-carboxamide], the inhibition at 1 µM with PC3 cells (setting [1]) was -8%; at hNAMPT protein (compound concentration 1 μM), 80%. The IC50 on hNAMPT protein (setting [2]) was in the range of 100 to 500 nM.

Consider `O=C(NCCCc1ccncc1)c1ccc2nc(-c3ccc(F)cc3)c(-c3ccc(F)cc3)nc2c1` [Compound I-229, 2,3-bis(4-fluorophenyl)-N-[3-(pyridin-4-yl)propyl]quinoxaline-6-carboxamide], for which the inhibition at 1 µM in the experiment on PC3 cells (setting [1]) turned out to be 95%; at hNAMPT protein (compound concentration 1 μM), 73%. At hNAMPT protein (setting [2]), the IC50 fell in the range of 100 to 500 nM.

Take `O=C(NCCCn1ccnc1)c1ccc2nc(C3=CCCC3)c(-c3ccccc3)nc2c1` [Compound I-230, 2-(cyclopent-1-en-1-yl)-N-[3-(1H-imidazol-1-yl)propyl]-3-phenylquinoxaline-6-carboxamide]: the inhibition at 1 µM was -7% in the experiment with PC3 cells (setting [1]) and 62% on hNAMPT protein (compound concentration 1 μM). Moreover, the IC50 on hNAMPT protein (setting [2]) was 500 to 1000 nM.

With `CC(C)(C)OC(=O)NCC1(O)CCN(C2CCN(c3nc4ccc(C(=O)NCCCn5ccnc5)cc4nc3-c3ccccc3)CC2)CC1` [Compound I-231, tert-Butyl {[4-hydroxy-1′-(6-{[3-(1H-imidazol-1-yl)propyl]carbamoyl}-3-phenylquinoxalin-2-yl)-1,4′-bipiperidin-4-yl]methyl}carbamate], the inhibition at 1 µM in the experiment on PC3 cells (setting [1]) is -2%; at hNAMPT protein (compound concentration 1 μM) it was 95%. The IC50 on hNAMPT protein (setting [2]) is less than 100 nM.

Consider `O=C(NCCCc1ncc[nH]1)c1ccc2nc(N3CCCCC3)c(-c3ccc(F)cc3)nc2c1` [Compound I-232, 3-(4-fluorophenyl)-N-[3-(1H-imidazol-2-yl)propyl]-2-(piperidin-1-yl)quinoxaline-6-carboxamide], for which, in the experiment on PC3 cells (setting [3]), the inhibition at 1.667 µM was 2%. In addition, the IC50 at hNAMPT protein (setting [2]) was less than 100 nM. Moreover, the inhibition at 1 µM on hNAMPT protein (compound concentration 1 μM) was greater than 99%.

Turning to `O=C(NCCCn1ccnc1)c1ccc2nc(Nc3ccccc3)c(-c3ccccc3)nc2c1` [Compound I-233, 2-Anilino-N-[3-(1H-imidazol-1-yl)propyl]-3-phenylquinoxaline-6-carboxamide], the inhibition at 1 µM is -8% in the experiment on PC3 cells (PC-3, 72 h) and 43% on hNAMPT protein. At hNAMPT protein, this compound gave an IC50 of 2000 to 10000 nM.

Turning to `Cn1ccnc1CCCNC(=O)c1ccc2nc(-c3ccc(F)cc3)c(-c3ccc(F)cc3)nc2c1` [Compound I-234, 2,3-bis(4-fluorophenyl)-N-[3-(1-methyl-1H-imidazol-2-yl)propyl]quinoxaline-6-carboxamide], the inhibition at 1 µM in the experiment on PC3 cells (setting [1]) stood at 41%; at hNAMPT protein (compound concentration 1 μM), 100%. At hNAMPT protein (setting [2]), the IC50 was less than 100 nM.

`NC(=O)c1cccc(-c2nc3ccc(C(=O)NCCCn4ccnc4)cc3nc2-c2ccccc2)c1` [Compound I-235, 2-(3-carbamoylphenyl)-N-[3-(1H-imidazol-1-yl)propyl]-3-phenylquinoxaline-6-carboxamide]: the inhibition at 1 µM was -8% in the experiment with PC3 cells (setting [1]) and 79% on hNAMPT protein (compound concentration 1 μM). The IC50 on hNAMPT protein (setting [2]) lay within 100 to 500 nM.

Take `O=C(NCCCn1ccnc1)c1ccc2nc(-c3ccccc3)c(-c3cccs3)nc2c1` [Compound I-236, N-[3-(1H-imidazol-1-yl)propyl]-2-phenyl-3-(2-thienyl)quinoxaline-6-carboxamide]: the inhibition at 1 µM was 1% in the experiment on PC3 cells (setting [1]) and 99% on hNAMPT protein (compound concentration 1 μM). Besides, at hNAMPT protein (setting [2]), the 50% inhibitory concentration (IC50) was less than 100 nM.

As for `O=C(NCCn1cncn1)c1ccc2nc(-c3ccc(F)cc3)c(-c3ccc(F)cc3)nc2c1` [Compound I-237, 2,3-bis(4-fluorophenyl)-N-[2-(1H-1,2,4-triazol-1-yl)ethyl]quinoxaline-6-carboxamide], the inhibition at 1 µM came out at 96% in the experiment with PC3 cells (setting [1]) and 21% on hNAMPT protein (compound concentration 1 μM). For the same compound, on hNAMPT protein (setting [2]), the IC50 is 2000 to 10000 nM.

With `O=C(NCCc1cn2c(n1)SCC2)c1ccc2nc(-c3ccc(F)cc3)c(-c3ccc(F)cc3)nc2c1` [Compound I-238, N-[2-(2,3-dihydroimidazo[2,1-b][1,3]thiazol-6-yl)ethyl]-2,3-bis(4-fluorophenyl)quinoxaline-6-carboxamide], the results for the inhibition at 1 µM in the experiment on PC3 cells (setting [1]) and at hNAMPT protein (compound concentration 1 μM) were 96% and 19%, respectively. In addition, the IC50 at hNAMPT protein (setting [2]) lay in the range of 2000 to 10000 nM.

On to `CC(C)(C)OC(=O)N1CCC(C2CCN(c3nc4ccc(C(=O)NCCn5ccnc5)cc4nc3-c3ccccc3)CC2)CC1` [Compound I-239, tert-Butyl 1′-(6-{[2-(1H-imidazol-1-yl)ethyl]carbamoyl}-3-phenylquinoxalin-2-yl)-4,4′-bipiperidine-1-carboxylate], for which the inhibition at 1 µM is 14% in the experiment with PC3 cells (setting [1]) and 25% on hNAMPT protein (compound concentration 1 μM). Also, the IC50 on hNAMPT protein (setting [2]) was 2000 to 10000 nM.

With `O=C(NCCCn1ccnc1)c1ccc2nc(C3=CCCCC3)c(-c3ccccc3)nc2c1` [Compound I-240, 2-(cyclohex-1-en-1-yl)-N-[3-(1H-imidazol-1-yl)propyl]-3-phenylquinoxaline-6-carboxamide], the figures for the inhibition at 1 µM in the experiment with PC3 cells (setting [1]) and on hNAMPT protein (compound concentration 1 μM) were -8% and 83%, respectively. At hNAMPT protein (setting [2]), the IC50 was 100 to 500 nM.

`COc1ccc(-c2nc3cc(C(=O)NCCCn4ccnc4)ccc3nc2-c2ccccc2)cc1` [Compound I-241, N-[3-(1H-imidazol-1-yl)propyl]-3-(4-methoxyphenyl)-2-phenylquinoxaline-6-carboxamide]: the inhibition at 1 µM is 1% in the experiment on PC3 cells (setting [1]) and 57% on hNAMPT protein (compound concentration 1 μM). Besides, the 50% inhibitory concentration (IC50) on hNAMPT protein (setting [2]) was 500 to 1000 nM.
